Reference: patent US10165776B2, “Substituted pyrazolylpyrazole derivative and use of same as herbicide” (KYOYU AGRI CO., LTD., priority 2015, dated 2019)

Columns and labels:
Type in all cases: in vivo
Oryza sativa = experiment: Paddy herbicidal activity test, phytotoxicity to transplanted rice; conditions: rice transplanted at 2.0 leaf stage, 30 days at 30° C.
Experimental: (§1) Rice paddy soil was filled into a 1/10000 are pot followed by the addition of suitable amounts of water and chemical fertilizer, kneading, seeding with Echinochloa crus-galli, Monochoria vaginalis and Scirpus juncoides and maintaining in an irrigated state at a water depth of 3 cm. Wettable powders of Target Compound (I) shown in Table 1 prepared in compliance with the preparation examples were diluted with a suitable amount of water, rice plants in the 2.0 leaf stage were transplanted during 3.5 leaf stage of Echinochloa crus-galli, and treated by dropping in chemical in the prescribed amount per 10 are using a pipette. After treating for 30 days in a glass greenhouse at an average atmospheric temperature of 30° C., the herbicidal efficacy thereof was investigated. Evaluation of herbicidal efficacy was carried out by comparing growth inhibition rate (%) with an untreated group, while evaluation of phytotoxicity was carried out by comparing growth inhibition rate (%) with the state of a complete eradication group, and were evaluated at 11 levels indicated below.

Scirpus juncoides = experiment: Paddy herbicidal activity test; conditions: irrigated pot, treated at 3.5 leaf stage of Echinochloa crus-galli, 30 days at 30° C.
Experimental: as §1

Echinochloa crus-galli = experiment: Paddy herbicidal activity test; conditions: irrigated pot, treated at 3.5 leaf stage of Echinochloa crus-galli, 30 days at 30° C.
Experimental: as §1

Monochoria vaginalis = experiment: Paddy herbicidal activity test; conditions: irrigated pot, treated at 3.5 leaf stage of Echinochloa crus-galli, 30 days at 30° C.
Experimental: as §1

Galinsoga parviflora = experiment: Weed foliar treatment test (Test 4, 4.0 to 5.0 leaf stage); conditions: 10 g a.i./10 a; foliar spray at 4.0 to 5.0 leaf stage of Digitaria ciliaris (plant height 10 cm to 15 cm); 20 days at 25° C.
Experimental: (§2) Field soil was filled into a 1/4500 are pot followed by seeding with Digitaria ciliaris and Galinsoga parviflora, covering with soil and cultivating in a glass greenhouse at an average atmospheric temperature of 25° C. Wettable powders of Target Compound (I) shown in Table 1 prepared in compliance with the preparation examples were diluted with water to the prescribed amount of chemical and uniformly sprayed onto the weeds using 100 liters of sprayed water per 10 are when Digitaria ciliaris had grown to the 4.0 to 5.0 leaf stage (plant height: 10 cm to 15 cm). After treating for 20 days in a glass greenhouse at an average atmospheric temperature of 25° C., the herbicidal efficacy thereof was investigated. Evaluation of herbicidal efficacy was carried out in the same manner as the above-mentioned Test Example 1.

Digitaria ciliaris [1] = experiment: as above; conditions: 10 g a.i./10 a; foliar spray at 4.0 to 5.0 leaf stage of Digitaria ciliaris (plant height 10 cm to 15 cm); 20 days at 25° C.
Experimental: as §2

Chenopodium album [2] = experiment: Farming soil treatment test; conditions: soil surface spray prior to weed growth, 30 days at 30° C.
Experimental: (§3) Field soil was filled into a 1/6000 are pot followed by seeding with Digitaria ciliaris, Chenopodium album and Amaranthus retroflexus and covering with soil. Wettable powders of compounds of formula (I) shown in Table 1 prepared in compliance with the preparation examples were diluted with water to the prescribed amount of chemical and uniformly sprayed onto each soil surface layer using 100 liters of sprayed water per 10 are prior to weed growth following seeding. After treating for 30 days in a glass greenhouse at an average atmospheric temperature of 30° C., the herbicidal efficacy thereof was investigated. Evaluation of herbicidal efficacy was carried out in the same manner as the above-mentioned Test Example 1.

Digitaria ciliaris [3] = experiment: Farming soil treatment test; conditions: soil surface spray prior to weed growth, 30 days at 30° C.
Experimental: as §3

Amaranthus retroflexus [4] = experiment: Farming soil treatment test; conditions: soil surface spray prior to weed growth, 30 days at 30° C.
Experimental: as §3

Chenopodium album [5] = experiment: Weed foliar treatment test (Test 3, 1.0 to 2.0 leaf stage); conditions: foliar spray at 1.0 to 2.0 leaf stage of Digitaria ciliaris, 3 weeks at 25° C.
Experimental: (§4) Soil was filled into a 1/6000 are pot followed by seeding with Digitaria ciliaris, Chenopodium album and Amaranthus retroflexus, covering with soil, and cultivating in a glass greenhouse at an average atmospheric temperature of 25° C. Wettable powders of Target Compound (I) shown in Table 1 prepared in compliance with the preparation examples were diluted with water to the prescribed amount of chemical and uniformly sprayed onto the weeds using 150 liters of sprayed water per 10 are when Digitaria ciliaris had grown to the 1.0 to 2.0 leaf stage. After treating for 3 weeks in a glass greenhouse at an average atmospheric temperature of 25° C., the herbicidal efficacy thereof was investigated. Evaluation of herbicidal efficacy was carried out in the same manner as the above-mentioned Test Example 1.

Digitaria ciliaris [6] = experiment: as above; conditions: foliar spray at 1.0 to 2.0 leaf stage of Digitaria ciliaris, 3 weeks at 25° C.
Experimental: as §4

Amaranthus retroflexus [7] = experiment: as above; conditions: foliar spray at 1.0 to 2.0 leaf stage of Digitaria ciliaris, 3 weeks at 25° C.
Experimental: as §4

| Compound | phytotoxicity, Oryza sativa (Oryza sativa; 1 g a.i./10 a) | phytotoxicity, Oryza sativa (Oryza sativa; 5 g a.i./10 a) | herbicidal efficacy, Scirpus juncoides (Scirpus juncoides; 1 g a.i./10 a) | herbicidal efficacy, Scirpus juncoides (Scirpus juncoides; 5 g a.i./10 a) | herbicidal efficacy, Echinochloa crus-galli (Echinochloa crus-galli; 1 g a.i./10 a) | herbicidal efficacy, Echinochloa crus-galli (Echinochloa crus-galli; 5 g a.i./10 a) | herbicidal efficacy, Monochoria vaginalis (Monochoria vaginalis; 1 g a.i./10 a) | herbicidal efficacy, Monochoria vaginalis (Monochoria vaginalis; 5 g a.i./10 a) | herbicidal efficacy, Galinsoga parviflora (Galinsoga parviflora) | herbicidal efficacy, Digitaria ciliaris (Digitaria ciliaris [1]) | herbicidal efficacy, Chenopodium album (Chenopodium album [2]; 5 g a.i./10 a) | herbicidal efficacy, Chenopodium album (Chenopodium album [2]; 10 g a.i./10 a) | herbicidal efficacy, Digitaria ciliaris (Digitaria ciliaris [3]; 5 g a.i./10 a) | herbicidal efficacy, Digitaria ciliaris (Digitaria ciliaris [3]; 10 g a.i./10 a) | herbicidal efficacy, Amaranthus retroflexus (Amaranthus retroflexus [4]; 5 g a.i./10 a) | herbicidal efficacy, Amaranthus retroflexus (Amaranthus retroflexus [4]; 10 g a.i./10 a) | herbicidal efficacy, Chenopodium album (Chenopodium album [5]; 5 g a.i./10 a) | herbicidal efficacy, Chenopodium album (Chenopodium album [5]; 10 g a.i./10 a) | herbicidal efficacy, Digitaria ciliaris (Digitaria ciliaris [6]; 5 g a.i./10 a) | herbicidal efficacy, Digitaria ciliaris (Digitaria ciliaris [6]; 10 g a.i./10 a) | further results |
| --- | --- | --- | --- | --- | --- | --- | --- | --- | --- | --- | --- | --- | --- | --- | --- | --- | --- | --- | --- | --- | --- |
| Cc1cccc(CC(=O)Nc2c(C#N)cnn2-c2nn3c(c2Cl)CCCC3)c1 [Compound 9] | 0 (0 (exponent): 0% to less than 10% (growth inhibition rate)) | 0 (0 (exponent): 0% to less than 10% (growth inhibition rate)) | 9 (9: 90% to less than 100%) | 9 (9: 90% to less than 100%) | 9 (9: 90% to less than 100%) | 9 (9: 90% to less than 100%) | 9 (9: 90% to less than 100%) | 10 (10: 100%) | 10 (10: 100%) | 10 (10: 100%) | 9 (9: 90% to less than 100%) | 10 (10: 100%) | 9 (9: 90% to less than 100%) | 9 (9: 90% to less than 100%) | 9 (9: 90% to less than 100%) | 10 (10: 100%) | 10 (10: 100%) | 10 (10: 100%) | 10 (10: 100%) | 10 (10: 100%) | herbicidal efficacy, Amaranthus retroflexus (Amaranthus retroflexus [7]; 5 g a.i./10 a): 10 (10: 100%); herbicidal efficacy, Amaranthus retroflexus (Amaranthus retroflexus [7]; 10 g a.i./10 a): 10 (10: 100%) |
| N#Cc1cnn(-c2nn3c(c2Cl)CCCC3)c1NC(=O)Cc1cccc(F)c1 [Compound 11] | 0 (0 (exponent): 0% to less than 10% (growth inhibition rate)) | 1 (1: 10% to less than 20%) | 9 (9: 90% to less than 100%) | 10 (10: 100%) | 9 (9: 90% to less than 100%) | 10 (10: 100%) | 9 (9: 90% to less than 100%) | 9 (9: 90% to less than 100%) | 10 (10: 100%) | 10 (10: 100%) | 10 (10: 100%) | 10 (10: 100%) | 9 (9: 90% to less than 100%) | 10 (10: 100%) | 9 (9: 90% to less than 100%) | 9 (9: 90% to less than 100%) | 10 (10: 100%) | 10 (10: 100%) | 10 (10: 100%) | 10 (10: 100%) | herbicidal efficacy, Amaranthus retroflexus (Amaranthus retroflexus [7]; 5 g a.i./10 a): 10 (10: 100%); herbicidal efficacy, Amaranthus retroflexus (Amaranthus retroflexus [7]; 10 g a.i./10 a): 10 (10: 100%) |
| N#Cc1cnn(-c2nn3c(c2Cl)CCCC3)c1NC(=O)Cc1ccc(F)cc1 [Compound 15] | 1 (1: 10% to less than 20%) | 1 (1: 10% to less than 20%) | 9 (9: 90% to less than 100%) | 10 (10: 100%) | 10 (10: 100%) | 10 (10: 100%) | 10 (10: 100%) | 10 (10: 100%) | 10 (10: 100%) | 10 (10: 100%) | 10 (10: 100%) | 10 (10: 100%) | 9 (9: 90% to less than 100%) | 10 (10: 100%) | 10 (10: 100%) | 10 (10: 100%) | 10 (10: 100%) | 10 (10: 100%) | 10 (10: 100%) | 10 (10: 100%) | herbicidal efficacy, Amaranthus retroflexus (Amaranthus retroflexus [7]; 5 g a.i./10 a): 10 (10: 100%); herbicidal efficacy, Amaranthus retroflexus (Amaranthus retroflexus [7]; 10 g a.i./10 a): 10 (10: 100%) |
| O=C(Cc1ccccc1)Nc1c([N+](=O)[O-])cnn1-c1nn2c(c1Cl)CCCC2 [Compound 5] | 1 (1: 10% to less than 20%) | 1 (1: 10% to less than 20%) | 9 (9: 90% to less than 100%) | 10 (10: 100%) | 10 (10: 100%) | 10 (10: 100%) | 10 (10: 100%) | 10 (10: 100%) | 10 (10: 100%) | 10 (10: 100%) | 9 (9: 90% to less than 100%) | 10 (10: 100%) | 9 (9: 90% to less than 100%) | 9 (9: 90% to less than 100%) | 9 (9: 90% to less than 100%) | 9 (9: 90% to less than 100%) | 10 (10: 100%) | 10 (10: 100%) | 10 (10: 100%) | 10 (10: 100%) | herbicidal efficacy, Amaranthus retroflexus (Amaranthus retroflexus [7]; 5 g a.i./10 a): 10 (10: 100%); herbicidal efficacy, Amaranthus retroflexus (Amaranthus retroflexus [7]; 10 g a.i./10 a): 10 (10: 100%) |
| O=C(Nc1c([N+](=O)[O-])cnn1-c1nn2c(c1Cl)CCCC2)c1ccccc1 [Control agent 2.19, reference compound] | 1 (1: 10% to less than 20%) | 1 (1: 10% to less than 20%) | 1 (1: 10% to less than 20%) | 2 (2: 20% to less than 30%) | 3 (3: 30% to less than 40%) | 4 (4: 40% to less than 50%) | 1 (1: 10% to less than 20%) | 1 (1: 10% to less than 20%) | 3 (3: 30% to less than 40%) | 1 (1: 10% to less than 20%) | 3 (3: 30% to less than 40%) | 4 (4: 40% to less than 50%) | 0 (0 (exponent): 0% to less than 10% (growth inhibition rate)) | 2 (2: 20% to less than 30%) | 1 (1: 10% to less than 20%) | 3 (3: 30% to less than 40%) | 4 (4: 40% to less than 50%) | 5 (5: 50% to less than 60%) | 1 (1: 10% to less than 20%) | 2 (2: 20% to less than 30%) | herbicidal efficacy, Amaranthus retroflexus (Amaranthus retroflexus [7]; 5 g a.i./10 a): 4 (4: 40% to less than 50%); herbicidal efficacy, Amaranthus retroflexus (Amaranthus retroflexus [7]; 10 g a.i./10 a): 4 (4: 40% to less than 50%) |
